{"source": "patent US20130172324A1", "about": "“METHOD FOR TREATING CARDIOVASCULAR DISEASES USING RHO KINASE INHIBITOR COMPOUNDS” (priority 2008, published 2013)", "key": {"rat trachea rings": {"system": "rat trachea rings", "assay": "Tracheal relaxation assay (carbachol precontracted rings);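 also: isometric tension of rat tracheal rings in Krebs buffer with 1 µM indomethacin, compounds added cumulatively at 30 min intervals, basal tension subtracted, fit to Hill equation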", "conditions": "for IC50: Rattus norvegicus, read-out: IC50 Avg", "method": "The effects of compounds to induce relaxation of pre-contracted rat trachealis were determined. […] Trachea were excised, cleaned of connective tissue and cut into cylindrical segments of 2-3 mm length. Two stainless steel wires were guided through the lumen of the tracheal ring. One wire was fixed in the tissue bath and the other was connected to a force transducer via surgical silk. […] Indomethacin (1 μM), a cyclooxygenase inhibitor, was added to the Krebs buffer and was present throughout the experiments. Contractile tensions were measured using an isometric force transducer (Grass Instruments) and signals were analyzed using specialized software (Chart v5.5, ADInstruments). The preparations were allowed to equilibrate at a resting tension of 0.3 to 0.5 gm prior to two challenges with 60 mM KCl to assess tissue viability. After washing, tissues were treated with 1 μM carbachol for 10 to 15 minutes to induce a contractile response. Test Compounds were added cumulatively to the bath every 30 minutes and reductions in tension were recorded. Basal tension was subtracted from all values and data were reported as a percentage of the maximal carbachol-induced contraction. Data were fit to the Hill equation using GraphPad Prism v5 software."}, "murine eosinophils": {"system": "murine eosinophils", "assay": "Eotaxin-induced murine eosinophil chemotaxis", "assay_type": "cell-based, mouse", "conditions": "10 nM eotaxin challenge; FIG. 1", "experimental": "Bronchoalveolar lavage was collected from ovalbumin sensitized and challenged mice in a volume of 2.5 mL lavage buffer. The lavage buffer was 0.9% saline with 10% fetal bovine serum. The pooled lavages were maintained on ice until use. The murine eosinophils were isolated using MACS cell separation (Miltenyi Biotech) by depletion of B cells and T cells by positive selection following incubation with antibody conjugated magnetic beads specific for CD45-R (B220) and CD90 (Thy 1.2), which bind B cells and T cells, respectively.\nEosinophil chemotaxis was assessed using a modified Boyden Chamber (Neuroprobe, 96-well) with a 5 μm pore membrane. The ability of the tested compounds to block chemotaxis induced by a 10 nM eotaxin challenge (mouse) or 1 nM eotaxin challenge (human) during one hour incubation at 37° C. with 5% CO2 was assessed. Chemotaxis was quantified via microscopy by counting the number of migrated cells in at least 3 view fields per treatment."}, "human eosinophils": {"system": "human eosinophils", "assay": "Eotaxin-induced human eosinophil chemotaxis", "assay_type": "cell-based", "conditions": "1 nM eotaxin challenge; FIG. 2", "text": "Peripheral blood from healthy human volunteers was collected and the PMNs separated via Ficoll-paque density centrifugation followed by hypotonic lysis of the red blood cells. Subsequently, the human eosinophils were isolated from the cell suspension via StemCell Technologies Human Eosinophil Enrichment kit (Cat. No 19256) according to the manufacturer's recommendations. Briefly, unwanted cells were specifically labeled with dextran-coated magnetic nanoparticles using bispecific Tetrameric Antibody Complexes (TAC) directed against cell surface antigens on human blood cells: […] The unwanted cells are then separated from the unlabelled eosinophils using the EasySep® magnetic isolation procedure."}, "[1]": {"system": "ova-sensitized, ova-challenged mice", "assay": "In vivo anti-inflammatory assay in ovalbumin-sensitized mice (BALF eosinophils and cytokines)", "design": "species or system mouse", "text": "A mouse model of asthma via ovalbumin sensitization was created as described in Example 23. The anti-inflammatory dosing paradigm (FIG. 10) was utilized to evaluate the anti-inflammatory effects of experimental compounds. The anti-inflammatory dosing paradigm consists of dosing the animals once a day starting on day 27 and finishing on either day 30 or 31 (1 hr prior to the aerosolized ovalbumin challenges on days 28 to 30) but not on day 32 when hyperreactivity evaluation occurs.\nBronchoalveolar lavage fluid (BALF) was collected by infusing 3.0 ml of saline with 10% fetal calf serum into the lungs via the trachea and then withdrawing the fluid. The total amount of cells/ml of BALF fluid was determined via manual cell count on hemocytometer. The BALF was centrifuged, supernatant removed and analyzed for cytokine concentrations as described below, and cell pellet reconstituted in 500 μL of fluid. Cytospin slides were prepared from the cell pellet using 100 μL of fluid and spinning samples for 5 minutes at 5000 rpms in a cytospin centrifuge. Following Hema3 stain, relative percentages of individual leukocytes were determined on a 200 cell count for each sample. The final concentration of individual leukocyte cell types per ml of BALF was determined by multiplication of the relative percentage of individual leukocytes with the total amount of cells/ml of BALF fluid.\nThe concentrations of cytokines in the BALF samples were determined using commercially available Bio-plex kits (Bio-Rad) for the detection of mouse IL-5, IL-13, and Eotaxin. The analysis of cytokine levels was measured using the Bio-Plex 200 (Bio-Rad) system according to the manufacturer's instructions."}, "[2]": {"system": "ova-sensitized, ova-challenged mice", "assay": "Prevention of airway hyperreactivity development, anti-inflammatory dosing paradigm (Penh)", "assay_type": "in vivo, mouse", "conditions": "oral 15 μMol/kg once a day during days 27 to 31; methacholine on Day 32"}, "[3]": {"assay": "Rat oral pharmacokinetics (plasma)", "assay_type": "in vivo", "method": "Plasma (EDTA K2 anticoagulant) was collected from male, cannulated, CD Sprague Dawley rats to determine the pharmacokinetics of formulations containing compound inhibitors of Rho kinase. Each animal was dosed orally with a 4 ml/kg solution or suspension of each test compound in 10 mM acetate buffered saline, pH 4.5 at a final concentration range of 20-30 μmol/kg. Blood was collected at 0.25, 0.5, 1, 2, 4, 6, 8, and 24 hours. Plasma samples were assayed for the concentration of the test compound using an on-line, solid phase extraction LC/MS/MS analysis system.\nSamples were analyzed on a QSTAR Elite, hybrid quadrupole time-of-flight mass spectrometer (Applied Biosystems, Framingham, Mass.) coupled with a Symbiosis Pharma integrated, on-line SPE-HPLC system (Spark Holland Inc., Plainsboro, N.J.). Analyst QS 2.0 software was used for instrument control, data acquisition and processing. […] Mobile Phase A consisted of 0.1% ammonium hydroxide in water and Mobile Phase B consisted of 0.1% formic acid in acetonitrile. Pharmacokinetic analyses were performed using WinNonlin software version 5.2 (Pharsight Corporation, Mountain View, Calif.).\nAs determined from the plasma concentration versus time curves, the time to peak and peak exposure are represented by the values Tmax and Cmax, respectively. The AUC values (nM*hr) shown were calculated as the areas under the plasma concentration versus time curves from time zero through the time of the last observable value and represent the total exposure of the compound over the course of the study. Half-life values or the amount of time required for the plasma levels of the compound to decline to half the initial value are represented as t1/2."}, "[4]": {"system": "ova-sensitized, ova-challenged mice", "assay": "Bronchodilator assay in ovalbumin-sensitized mice (Penh, methacholine)", "assay_type": "in vivo, mouse", "experimental": "Male BALB/c mice were ordered from Charles River Laboratories (Raleigh, N.C.). The animals were approximately 19 to 21 grams at time of receipt. Upon arrival, the animals were randomized into groups of five males per cage and assigned to a dosing group. Animals were quarantined for 7 days under test conditions. They were observed daily for general health status and ability to adapt to the water bottles.\nAnimals were sensitized on day 0 and 14 of study by an intraperitoneal injection with 20 μg of ovalbumin (ova) and 2.0 mg aluminum hydroxide (alum) which initiates the development of a specific T-helper (Th) cells type 2 resulting in asthmatic animals. One group of animals received an injection of saline to use as non-asthmatic control animals. All animals were challenged with aerosolized 1% ova once daily for 25 minutes on days 28, 29, and 30 (Zosky, et al. Respiratory Research. 2004; 5:15). Aerosol challenge consists of using an Aerogen Aeroneb nebulizer and controller with a particle size of 4-6 μm mass median aerodynamic diameter (MMAD) with a distribution of 400 μl per minute. This aerosol challenge is necessary to target the Th2-driven allergic inflammation in the lower airways.\nThe test compounds and the control vehicle were administered to animals on the day of airway hyperreactivity evaluation 30 minutes to 1 hour before the evaluation to determine the bronchodilator effects of the compounds according to the bronchodilator dosing paradigm (FIG. 8). Compounds were administered p.o. (orally), i.p. (intraperitoneally) at 15 μMol/kg unless otherwise noted (Table 6). Alternatively, compounds were administered i.t. (intratracheally) at varying doses as shown (FIG. 9). On day 32 of the experiment, airway hyperreactivity was evaluated by placing conscious, unrestrained animals in a whole body plethysmometer (Buxco Wilmington, N.C.) and exposing them to escalating doses of nebulized methacholine, a known bronchial constrictor which acts through the muscarinic receptors of the lungs, (doses: 0.325-50 mg/ml). Exposure to the methacholine doses consisted of a 3 minute period during which a nebulizer was aerosolizing the methacholine and an additional 3 minute period following the cessation of nebulization. Over this 6 minute period, the plethysmometer monitors and generates numerical values for all parameters of the breath pattern. Enhanced pause (Penh), a unitless index of airway hyperreactivity, is derived from the expiratory side of the respiratory waveform measured via the plethysmograph and is used as an indirect measure of airway resistance and hyperreactivity. […] Following the methacholine dose response, all animals were anesthetized, bled and euthanized.\nWithin each experiment, a mouse was given a single compound and exposed to increasing doses of methacholine [0 (baseline), 0.375, 0.75, 1.5, 3, 6, 12, 25, 50 mg/ml]. The Penh value at each of the dose levels of methacholine represents the 6-minute average response. Change from baseline (CFB) in Penh was calculated at each methacholine dose and the area under the curve (AUC) for these CFB values was calculated using the trapezoidal rule. This same approach was applied for each mouse across multiple experiments.\nFor statistical analyses, a linear mixed-effects model where the response was the log 10 transformed value of AUC described above was used. Data from equal experimental conditions across experiments performed on different days were pooled for statistical analysis and data reporting. The various compounds were compared adjusting for the log 10-transformed baseline value of Penh and the chamber (1 of 10) of the plethysmometer each mouse was contained in during an experiment. A random intercept for each experiment was assumed to account for possible similarities of the results obtained from a given experiment (i.e., as a “blocking effect”). […] Computations were performed using PROC MIXED (SAS Version 9.1). […]"}, "[5]": {"system": "A-10 rat thoracic aorta cells", "assay": "PDGF-stimulated smooth muscle cell proliferation assay (BrdU)", "assay_type": "cell-based", "conditions": "10 μM compound, 10 ng/mL PDGF, A-10 cells, percent of total challenge-stimulated proliferation", "method": "Effects on cell proliferation were measured using a bromodeoxyuridine (BrdU) incorporation assay. […] Serum free media containing 0.1% BSA was added to the cells. 24 hours later the media was removed and replaced with warmed serum free media. […] Proliferation was then monitored using the BrdU Cell Proliferation Assay, HTS (Calbiochem cat. #HTS01). BrdU was allowed to incorporate into cells for 24 hours prior to the addition of fixative/denaturing solution and the fluorometric detection of incorporated BrdU using a BrdU antibody as per manufacturer's directions. Data are reported as a percent of the PDGF-stimulated BrdU incorporation."}, "rat aorta": {"system": "rat aorta", "assay": "Aortal relaxation assay (norepinephrine precontracted rings)", "conditions": "100 μM compound, 100 nM norepinephrine; FIG. 4B", "experimental": "This assay is a model for selecting compounds for treating diseases that involve constriction of arterial smooth muscle, such as atherosclerosis and systemic hypertension. The effects of compounds to induce relaxation of pre-contracted rat pulmonary artery and rat aorta were determined. […] Pulmonary artery or aorta were excised, cleaned of connective tissue and cut into cylindrical segments of 2-3 mm length. The preparations were mounted in a tissue bath by tying two threads of surgical silk through the lumen of the vessel. One silk was used to anchor the tissue to a metal wire in the bath and the other silk was connected to a force transducer. […] Contractile tensions were measured using an isometric force transducer (Grass Instruments) and signals were analyzed using specialized software (Chart v5.5, ADInstruments). The preparations were allowed to equilibrate at a resting tension of 0.1 to 0.2 gm for pulmonary artery and 2.0 gm for aorta prior to two challenges with 80 mM KCl to assess tissue viability. […] For pulmonary artery, compounds were added cumulatively to the bath every 30 minutes and reductions in tension were recorded. Basal tension was subtracted from all values and data was reported as a percentage of the maximal norephinephrine-induced contraction. […] For aorta, a single dose of compound was added and reductions in tension were recorded."}, "rat pulmonary artery": {"system": "rat pulmonary artery", "assay": "Pulmonary arterial relaxation assay (norepinephrine precontracted rings)", "method": "Pulmonary artery or aorta were excised, cleaned of connective tissue and cut into cylindrical segments of 2-3 mm length. The preparations were mounted in a tissue bath by tying two threads of surgical silk through the lumen of the vessel. One silk was used to anchor the tissue to a metal wire in the bath and the other silk was connected to a force transducer. […] Contractile tensions were measured using an isometric force transducer (Grass Instruments) and signals were analyzed using specialized software (Chart v5.5, ADInstruments). The preparations were allowed to equilibrate at a resting tension of 0.1 to 0.2 gm for pulmonary artery and 2.0 gm for aorta prior to two challenges with 80 mM KCl to assess tissue viability. After washing, tissues were treated with 100 nM norepinephrine for 5 to 10 minutes to induce a contractile response. For pulmonary artery, compounds were added cumulatively to the bath every 30 minutes and reductions in tension were recorded. Basal tension was subtracted from all values and data was reported as a percentage of the maximal norephinephrine-induced contraction. Data were fit to the Hill equation using GraphPad Prism v5 software. For aorta, a single dose of compound was added and reductions in tension were recorded."}, "[6]": {"conditions": "rat, oral, 20-30 μmol/kg, plasma, mean of n = 3"}}}
{"smiles": "CS(=O)(=O)Nc1cccc(CN2CC[C@@H](Nc3cccc4cnccc34)C2)c1", "note": "[Compound 2.038, (R)-N-(3-((3-(isoquinolin-5-ylamino)pyrrolidin-1-yl)methyl)phenyl)methanesulfonamide]", "values": [{"measurement": "Percentage of carbachol-induced contraction at 1 μM compound, Avg %", "setting": "rat trachea rings; 1 μM compound, 1 μM carbachol", "result": 57.2, "unit": "%"}, {"measurement": "Percentage of carbachol-induced contraction at 10 μM compound, Avg %", "setting": "rat trachea rings; 1 μM carbachol", "result": 10.2, "unit": "%"}, {"measurement": "IC50", "setting": "rat trachea rings", "result": 272, "unit": "nM"}, {"measurement": "Trachael Ring Contraction, %", "setting": "rat trachea rings; average percentage of carbachol-induced rat tracheal ring contraction at 1 μM of test compound", "result": 57, "unit": "%"}, {"measurement": "chemotactic response of murine eosinophils", "setting": "murine eosinophils", "result": "inhibited"}, {"measurement": "chemotactic response of human eosinophils", "setting": "human eosinophils", "result": "inhibited"}, {"measurement": "concentration of IL-5 in BALF", "setting": "[1]; 15 μmol/kg/oral on days 27 to 31, FIG. 13", "result": "reduced levels"}, {"measurement": "concentration of Eotaxin in BALF", "setting": "[1]; 15 μmol/kg/oral on days 27 to 31, FIG. 14", "result": "reduced levels"}, {"measurement": "concentration of IL-13 in BALF", "setting": "[1]; 15 μmol/kg/oral on days 27 to 31, FIG. 15", "result": "reduced levels"}, {"measurement": "eosinophils per ml of BALF (airway eosinophil infiltration)", "setting": "[1]; dosed orally to day 31, anti-inflammatory dosing paradigm, FIG. 11", "result": "reduced"}, {"measurement": "airway hyperreactivity to methacholine", "setting": "[2]", "result": "prevention of airway hyperreactivity"}, {"measurement": "plasma and lung tissue concentrations after oral dosing", "setting": "[3]; oral dosing, refers to Table 13 and Table 15", "result": "high plasma and lung tissue concentrations"}, {"measurement": "log10AUC (penh)", "setting": "[4]; 15 μmol/kg oral, bronchodilator dosing paradigm", "result": 2.0813}, {"measurement": "reduction in airway hyperresponsiveness", "setting": "[4]; oral doses", "result": "statistically significant reduction"}]}
{"smiles": "CSc1ccc(CN2CC[C@@H](Nc3cccc4cnccc34)C2)cc1", "note": "[Compound 2.026, (R)-N-(1-(4-(methylthio)benzyl)pyrrolidin-3-yl)isoquinolin-5-amine]", "values": [{"measurement": "Percentage of carbachol-induced contraction at 10 μM compound, Avg %", "setting": "rat trachea rings; 1 μM carbachol", "result": 17.1, "unit": "%"}, {"measurement": "IC50", "setting": "rat trachea rings", "result": 2860, "unit": "nM"}, {"measurement": "AUC (0-last)", "setting": "[3]; [6]", "result": "BLQ"}, {"measurement": "Cmax", "setting": "[3]; [6]", "result": "BLQ"}, {"measurement": "Tmax", "setting": "[3]; [6]", "result": "BLQ"}, {"measurement": "Vz_F", "setting": "[3]; [6]", "result": "BLQ"}, {"measurement": "t½", "setting": "[3]; [6]", "result": "BLQ"}, {"measurement": "Percent of PDGF Induced Proliferation at 10 μM Avg", "setting": "[5]", "result": 52.0, "unit": "%"}]}
{"smiles": "OCCOc1cccc(CN2CC[C@@H](Nc3cccc4cnccc34)C2)c1", "note": "[Compound 2.039, (R)-2-(3-((3-(isoquinolin-5-ylamino)pyrrolidin-1-yl)methyl)phenoxy)ethanol]", "values": [{"measurement": "Percentage of carbachol-induced contraction at 10 μM compound, Avg %", "setting": "rat trachea rings; 1 μM carbachol", "result": 6.2, "unit": "%"}, {"measurement": "IC50", "setting": "rat trachea rings", "result": 343, "unit": "nM"}, {"measurement": "norepinephrine-induced contractile response (tension) of aortal ring", "setting": "rat aorta", "result": "fully reversed"}, {"measurement": "relaxant response in precontracted pulmonary artery", "setting": "rat pulmonary artery; 100 nM norepinephrine precontracted, FIG. 4A", "result": "fully relaxed"}, {"measurement": "IC50", "setting": "rat pulmonary artery; Rattus norvegicus, read-out: IC50 for compound-induced relaxation", "result": 151, "unit": "nM"}]}
